From patent US20120283216A1, “FUNGICIDAL 2-(BICYCLIC ARYLOXY)CARBOXAMIDES” (priority 2009, published 2012) come the findings set out here.

Holding throughout (type): in vivo
Assay [1] relates to Blumeria graminis f. sp. tritici. Put plainly: Test A: wheat powdery mildew, preventive spray on wheat seedlings, visual disease rating. The conditions noted are these: preventive spray at 40 ppm, rated 8 days after inoculation; for pest or weed control at 40 ppm: Blumeria graminis, 192 h, read-out: Test A disease control rating (100 = 100% disease control, 0 = no disease control relative to the controls). The text has this: General protocol for preparing test suspensions for Tests A-C: the test compounds were first dissolved in acetone in an amount equal to 11% of the final volume and then suspended at the desired concentration (in ppm) in acetone and purified water (50/50 mix by volume) containing 250 ppm of the surfactant Trem® 014 (polyhydric alcohol esters). The resulting test suspensions were then used in Tests A-C. Spraying a 40 ppm test suspension to the point of run-off on the test plants was the equivalent of a rate of 800 g/ha. The test suspension was sprayed to the point of run-off on wheat seedlings. The following day the seedlings were inoculated with a spore dust of Blumeria graminis f. sp. tritici, (the causal agent of wheat powdery mildew) and incubated in a growth chamber at 20° C. for 8 days, after which time disease ratings were visually made. Results for Tests A-C are given in Table A. In the Table, a rating of 100 indicates 100% disease control and a rating of 0 indicates no disease control (relative to the controls). A dash (-) indicates no test results. All results are from applications of 40 ppm.

The subject of another assay is Septoria tritici. Put plainly: Test B: wheat leaf blotch, preventive spray on wheat seedlings, visual disease rating. As to conditions: preventive spray at 40 ppm, rated after 48 h + 19 days; for pest or weed control at 40 ppm: Zymoseptoria tritici, 504 h, read-out: Test B disease control rating (100 = 100% disease control, 0 = no disease control relative to the controls). The source says:
General protocol for preparing test suspensions for Tests A-C: the test compounds were first dissolved in acetone in an amount equal to 11% of the final volume and then suspended at the desired concentration (in ppm) in acetone and purified water (50/50 mix by volume) containing 250 ppm of the surfactant Trem® 014 (polyhydric alcohol esters). The resulting test suspensions were then used in Tests A-C. Spraying a 40 ppm test suspension to the point of run-off on the test plants was the equivalent of a rate of 800 g/ha. The test suspension was sprayed to the point of run-off on wheat seedlings. The following day the seedlings were inoculated with a spore suspension of Septoria tritici (the causal agent of wheat leaf blotch) and incubated in a saturated atmosphere at 20° C. for 48 h, and then moved to a growth chamber at 20° C. for 19 days, after which time disease ratings were visually made. Results for Tests A-C are given in Table A. In the Table, a rating of 100 indicates 100% disease control and a rating of 0 indicates no disease control (relative to the controls). A dash (-) indicates no test results. All results are from applications of 40 ppm.

The test system of the next assay is Botrytis cinerea. Put plainly: Test C: tomato botrytis, preventive spray on tomato seedlings, visual disease rating. The conditions noted are these: preventive spray at 40 ppm, rated after 48 h + 3 days; for pest or weed control at 40 ppm: Botrytis cinerea, 120 h, read-out: Test C disease control rating (100 = 100% disease control, 0 = no disease control relative to the controls). The source says:
General protocol for preparing test suspensions for Tests A-C: the test compounds were first dissolved in acetone in an amount equal to 11% of the final volume and then suspended at the desired concentration (in ppm) in acetone and purified water (50/50 mix by volume) containing 250 ppm of the surfactant Trem® 014 (polyhydric alcohol esters). The resulting test suspensions were then used in Tests A-C. Spraying a 40 ppm test suspension to the point of run-off on the test plants was the equivalent of a rate of 800 g/ha.
The test suspension was sprayed to the point of run-off on tomato seedlings. The following day the seedlings were inoculated with a spore suspension of Botrytis cinerea (the causal agent of tomato botrytis) and incubated in saturated atmosphere at 20° C. for 48 h, and then moved to a growth chamber at 27° C. for 3 additional days, after which time disease ratings were visually made.
Results for Tests A-C are given in Table A. In the Table, a rating of 100 indicates 100% disease control and a rating of 0 indicates no disease control (relative to the controls). A dash (-) indicates no test results. All results are from applications of 40 ppm.

As for `CCC(Oc1cnc2ccc(I)cc2c1)C(=O)NC(C)(C)COC` (single isomer, unassigned) [Compound 61], the “Test A disease control rating (100 = 100% disease control, 0 = no disease control relative to the controls)” value in assay [1] is listed as 98%. Also, the “Test B disease control rating (100 = 100% disease control, 0 = no disease control relative to the controls)” value in the assay with Septoria tritici is 100%. Further, the “Test C disease control rating (100 = 100% disease control, 0 = no disease control relative to the controls)” value with Botrytis cinerea was 99%.
For `CCC(Oc1cnc2ccc(I)cc2c1)C(=O)NC(C)(C)COC` (single isomer, unassigned) [Compound 62], in that order: 0%, 0% and 7%.
For `CCC(Oc1ccc2ccc(Br)cc2c1)C(=O)NC(C)(C)C#N` (stereo not shown) [Compound 1], in that order: 91%, 100% and 100%.
As for `CCC(Oc1ccc2ccc(OC)cc2c1)C(=O)NC(C)(C)C` (stereo not shown) [Compound 3, N-(1,1-dimethylethyl)-2-[(7-methoxy-2-naphthalenyl)oxy]butan amide], the pest or weed control at 40 ppm in assay [1] was 100%; in the assay with Septoria tritici, 99%; in the assay on Botrytis cinerea it was 99%.
`C#CC(C)(C)NC(=O)C(CC)Oc1ccc2ccc(OC)cc2c1` (stereo not shown) [Compound 4]: the “Test A disease control rating (100 = 100% disease control, 0 = no disease control relative to the controls)” value in assay [1] is recorded as 97%. For the same molecule, the “Test B disease control rating (100 = 100% disease control, 0 = no disease control relative to the controls)” value in the assay on Septoria tritici was found to be 100%. Besides, in the assay on Botrytis cinerea, the “Test C disease control rating (100 = 100% disease control, 0 = no disease control relative to the controls)” value was found to be 100%.
For the molecule `CCC(Oc1ccc2ccc(OC(F)F)cc2c1)C(=O)NC(C)(C)C` (stereo not shown) [Compound 5], the pest or weed control at 40 ppm in assay [1] turned out to be 99%; with Septoria tritici, 99%; in the assay on Botrytis cinerea it was 100%.
With `C#CC(C)(C)NC(=O)C(CC)Oc1ccc2ccc(OC(F)F)cc2c1` (stereo not shown) [Compound 6], the “Test A disease control rating (100 = 100% disease control, 0 = no disease control relative to the controls)” value in assay [1] came to 98%. In addition, the “Test B disease control rating (100 = 100% disease control, 0 = no disease control relative to the controls)” value with Septoria tritici is given as 100%. For the same molecule, the “Test C disease control rating (100 = 100% disease control, 0 = no disease control relative to the controls)” value with Botrytis cinerea is listed as 100%.
With `CCC(Oc1ccc2ccc(Br)cc2c1)C(=O)NC(C)(C)COC` (stereo not shown) [Compound 7, 2-[(7-bromo-2-naphthalenyl)oxy]-N-(2-methoxy-1,1-dimethylethyl)butanamide], the values for the pest or weed control at 40 ppm (in assay [1]; with Septoria tritici; with Botrytis cinerea) were 100%, 99% and 99%, respectively.
As for `CCC(Oc1ccc2ccc(Br)cc2c1)C(=O)NC(C)(C)C` (stereo not shown) [Compound 8, 2-[(7-bromo-2-naphthalenyl)oxy]-N-(1,1-dimethylethyl)butanamide], the values for the pest or weed control at 40 ppm (in assay [1]; with Septoria tritici; in the assay with Botrytis cinerea) were 100%, 99% and 99%, respectively.
Take `CCC(Oc1ccc2ccc(Br)cc2c1)C(=O)NN(C)C` (stereo not shown) [Compound 9]: the pest or weed control at 40 ppm in assay [1] came out at 69%; with Septoria tritici, 99%; in the assay with Botrytis cinerea, 99%.
As to `CCC(Oc1ccc2ccc(Br)cc2c1)C(=O)NC(C)(C)COP(C)(C)=O` (stereo not shown) [Compound 10], the “Test A disease control rating (100 = 100% disease control, 0 = no disease control relative to the controls)” value in assay [1] is listed as 21%. In addition, in the assay with Septoria tritici, the “Test B disease control rating (100 = 100% disease control, 0 = no disease control relative to the controls)” value was found to be 99%. Also, in the assay with Botrytis cinerea, the “Test C disease control rating (100 = 100% disease control, 0 = no disease control relative to the controls)” value is 98%.
For `CCC(Oc1ccc2ccc(Br)cc2c1)C(=O)NC(C)(C)CNC=O` (stereo not shown) [Compound 11], in that order: 21%, 99% and 100%.
Turning to `CCC(Oc1ccc2ccc(Br)cc2c1)C(=O)NC(C)(C)CNC(=O)OC(C)(C)C` (stereo not shown) [Compound 12], the “Test A disease control rating (100 = 100% disease control, 0 = no disease control relative to the controls)” value in assay [1] was 0%. For the same molecule, in the assay on Septoria tritici, the “Test B disease control rating (100 = 100% disease control, 0 = no disease control relative to the controls)” value worked out at 93%. Moreover, the “Test C disease control rating (100 = 100% disease control, 0 = no disease control relative to the controls)” value in the assay on Botrytis cinerea amounted to 0%.
On to `CCC(Oc1ccc2ccc(Br)cc2c1)C(=O)NC1(C)CC1` (stereo not shown) [Compound 13], for which the results for the pest or weed control at 40 ppm (in assay [1]; in the assay on Septoria tritici; with Botrytis cinerea) were 50%, 98% and 99%, respectively.
Turning to `CCC(Oc1ccc2ccc(Br)cc2c1)C(=O)NC(C)(C)CN` (stereo not shown) [Compound 14], the “Test A disease control rating (100 = 100% disease control, 0 = no disease control relative to the controls)” value in assay [1] was 90%. The “Test B disease control rating (100 = 100% disease control, 0 = no disease control relative to the controls)” value in the assay on Septoria tritici was 99%. Also, the “Test C disease control rating (100 = 100% disease control, 0 = no disease control relative to the controls)” value in the assay on Botrytis cinerea stood at 99%.
With `CCC(Oc1ccc2ccc(Br)cc2c1)C(=O)NC(C)(C)CN=CN(C)C` (stereo not shown) [Compound 15, 2-[(7-bromo-2-naphthalenyl)oxy]-N-[2-[[(dimethylamino)methylene]amino]-1,1-dimethylethyl]butanamide], the pest or weed control at 40 ppm was 43% in assay [1], 100% with Septoria tritici and 100% in the assay on Botrytis cinerea.
Take `CCC(Oc1ccc2ccc(Br)cc2c1)C(=O)NC(C)(C)CO` (stereo not shown) [Compound 16, 2-[(7-bromo-2-naphthalenyl)oxy]-N-(2-hydroxy-1,1-dimethylethyl)-butanamide]: the pest or weed control at 40 ppm in assay [1] was found to be 97%; with Septoria tritici it was 99%; in the assay on Botrytis cinerea, 100%.
For the molecule `CCC(Oc1ccc2ccc(Br)cc2c1)C(=O)NC(C)(C)C=O` (stereo not shown) [Compound 17], the “Test A disease control rating (100 = 100% disease control, 0 = no disease control relative to the controls)” value in assay [1] came to 89%. In addition, the “Test B disease control rating (100 = 100% disease control, 0 = no disease control relative to the controls)” value in the assay with Septoria tritici amounted to 100%. The “Test C disease control rating (100 = 100% disease control, 0 = no disease control relative to the controls)” value in the assay with Botrytis cinerea is 99%.
For `CCC(Oc1ccc2ccc(Br)cc2c1)C(=O)NC(C)(C)COC=O` (stereo not shown) [Compound 18], in that order: 99%, 99% and 100%.
In the case of `C#CC(C)(C)NC(=O)C(CC)Oc1ccc2ccc(Br)cc2c1` (stereo not shown) [Compound 31], the “Test A disease control rating (100 = 100% disease control, 0 = no disease control relative to the controls)” value in assay [1] is 100%. Moreover, the “Test C disease control rating (100 = 100% disease control, 0 = no disease control relative to the controls)” value with Botrytis cinerea is 100%.
Take `COC(Oc1ccc2ccc(Br)cc2c1)C(=O)NC(C)(C)CO` (stereo not shown) [Compound 98]: the “Test A disease control rating (100 = 100% disease control, 0 = no disease control relative to the controls)” value in assay [1] worked out at 64%. Besides, the “Test C disease control rating (100 = 100% disease control, 0 = no disease control relative to the controls)” value in the assay with Botrytis cinerea worked out at 99%.
`COCOCC(C)(C)NC(=O)C(OC)Oc1ccc2ccc(Br)cc2c1` (stereo not shown) [Compound 99]: in assay [1], the “Test A disease control rating (100 = 100% disease control, 0 = no disease control relative to the controls)” value was found to be 96%. The “Test C disease control rating (100 = 100% disease control, 0 = no disease control relative to the controls)” value in the assay on Botrytis cinerea turned out to be 100%.
In the case of `COC(Oc1ccc2ccc(Br)cc2c1)C(=O)NC(C)(C)C` (stereo not shown) [Compound 100], the pest or weed control at 40 ppm came to 100% in assay [1] and 99% with Botrytis cinerea.
In the case of `C#Cc1ccc2ncc(OC(CC)C(=O)NC(C)(C)COC)cc2c1` (stereo not shown) [Compound 148], the “Test A disease control rating (100 = 100% disease control, 0 = no disease control relative to the controls)” value in assay [1] worked out at 100%. Further, the “Test C disease control rating (100 = 100% disease control, 0 = no disease control relative to the controls)” value with Botrytis cinerea is 100%.
